# Results taken from patent US11214803B2, “Modulators of YAP1 expression” (Ionis Pharmaceuticals, Inc., priority 2019, dated 2022).
# How the values were obtained:
# [1] = Cynomolgus monkey tolerability, hematology (Example 34); type: in vivo, cynomolgus monkeys; settings: for BAS / EOS / HCT / HGB / LUC / LYM / MCH / MCHC / MCV / MON / NEU / PLT / RBC / RCDW / Retic / WBC: cynomolgus monkey, in vivo, sc, 35 mg/kg; for MPV: cynomolgus monkeys, 35 mg/kg subcutaneously, day 44
# Summary of the method: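 On day 44, blood from oligonucleotide-treated cynomolgus monkeys was collected into K2-EDTA. An automated analyzer measured red cell indices, reticulocytes, platelets and MPV, and total and differential white cell counts.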
# [2] = Tolerability in Sprague-Dawley rats, plasma chemistry markers (Example 22); type: in vivo; settings: male Sprague-Dawley rats, 50 mg/kg s.c. weekly for 6 weeks (7 doses), 48 hours after last dose
# Protocol: Sprague-Dawley rats are a multipurpose model used for safety and efficacy evaluations. The rats were treated with Ionis modified oligonucleotides from the studies described in the Examples above and evaluated for changes in the levels of various plasma chemistry markers.
# Yap1 mRNA [3] = experiment: Inhibition of human Yap1 mRNA in squamous cell carcinoma CAL27 xenograft tumors (Example 28); type: in vivo; settings: CAL27 xenografts in NCr-Foxn1nu mice, relative to PBS treated
# Protocol: A squamous cell carcinoma CAL27 xenograft tumor model was used to evaluate activity of modified oligonucleotides targeted to human Yap1. Five million CAL27 cells in 30% matrigel were implanted subcutaneously into the flanks of female CrTac:NCr-Foxn1nu mice (from Taconic) at 4-6 weeks of age. Groups of four mice each were administered with either 15 mg/kg or 30 mg/kg of modified oligonucleotides daily for five days after tumor size had reached ˜100 mm^3 (about 3 weeks post implantation). Tumors were collected and tested for Yap1 mRNA knockdown by RT-qPCR. Yap1 mRNA levels were measured as previously described using the Human Yap1 primer-probe set RTS4814. Yap1 mRNA levels were normalized to actin-beta content, as measured by primer probe set RTS5002. Results are presented in the tables below as percent control of the amount of Yap1 mRNA relative to PBS treated […].
# Yap1 mRNA [4] = experiment: Dose-dependent inhibition of human Yap1 in SNU-449 cells (Example 9, RTS36584); type: cell-based; settings: free uptake; for % UTC (Yap1 mRNA): approximately 48 hours; for IC50: linear regression on a log/linear plot
# Summary of the method: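 Read-out was Yap1 mRNA (primer-probe RTS36584) normalised to total RNA by RIBOGREEN, given as % of untreated cells, with IC50 fitted by linear regression of log/linear data. Oligonucleotides were dosed by free uptake to SNU-449 cells, 10,000/well, for ~48 h.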
# Yap1 mRNA [5] = experiment: Yap1 mRNA in SCC25 cells, RNA analysis (Example 25); type: cell-based, human; settings: free uptake, 48 hours, RTS4814, normalized to actin-beta
# Protocol: Modified oligonucleotides described in the studies above were tested at various doses in squamous cell carcinoma cell SCC25. A control oligonucleotide 792169 (a 3-10-3 cET gapmer with a full phosphorothioate backbone, […], designated herein as SEQ ID No.: 2940; is not complementary to any known human gene) was also tested.
# Cultured SCC25 cells at a density of 5,000 cells per well were treated using free uptake with modified oligonucleotides diluted to concentrations described in the tables below. After approximately 48 hours, Yap1 mRNA levels were measured as previously described using the Human Yap1 primer-probe set RTS4814. Yap1 mRNA levels were normalized to actin-beta content, as measured by primer probe set RTS5002 (forward sequence […], designated herein as SEQ ID NO.: 20; reverse sequence […], designated herein as SEQ ID NO.: 21; probe sequence […], designated herein as SEQ ID NO.: 22). Results are presented in the tables below as percent control of the amount of Yap1 mRNA relative to untreated control cells (% UTC).
# [6] = cynomolgus monkey, in vivo, sc, 35 mg/kg
# Protocol: Prior to the study, the monkeys were kept in quarantine during which the animals were observed daily for general health. The monkeys were 2-4 years old and weighed 2-4 kg. Eleven groups of 4 randomly assigned male cynomolgus monkeys each were injected subcutaneously with Ionis oligonucleotide or saline in a clock-wise rotation between four different sites on the back. Following loading doses on days 1, 3, 5 and 7, the monkeys were dosed once per week (on days 14, 21, 28, 35, and 42) with 35 mg/kg of Ionis oligonucleotide.
# To evaluate the effect of Ionis oligonucleotides on hepatic and kidney function, blood samples were collected from all the study groups on day 44. The monkeys were fasted overnight prior to blood collection. Blood was collected in tubes without anticoagulant for serum separation. The tubes were kept at room temperature for a minimum of 90 minutes and then centrifuged at 3000 rpm for 10 minutes to obtain serum. Levels of various liver function markers were measured using a Toshiba 200FR NEO chemistry analyzer (Toshiba Co., Japan).
# Yap1 mRNA [7] = experiment: Inhibition of human Yap1 mRNA in SNU449 hepatocellular carcinoma xenograft tumors (Example 26); type: in vivo; settings: SNU449 xenografts in NSG mice, 50 mg/kg twice weekly for five days, relative to PBS treated animals
# Summary of the method: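 Female NSG mice bearing subcutaneous SNU449 xenografts (about 100 mm^3) dosed with modified oligonucleotides at 50 mg/kg twice weekly for five days, four per group. Tumour Yap1 mRNA measured by RT-qPCR, normalized to actin-beta, expressed as % of PBS-treated controls.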
Substance,BAS [1] [%],EOS [1] [%],HCT [1] [%],HGB [1] [g/dL],LUC [1] [%],LYM [1] [%],MCH [1] [pg],MCHC [1] [g/dL],MCV [1] [fL],MON [1] [%],NEU [1] [%],PLT [1],RBC [1] [µL⁻¹],RCDW [1] [%],Retic [1] [%],WBC [1] [µL⁻¹],MPV [1] [fL],ALT [2] [U/L],AST [2] [U/L],BUN [2] [mg/dL],other results
"1198623 (CTAAGTAAGGTTTCCC; modified gapmer, further chemistry not given here) [compound 1198623]",0.4,0.8,46,14,0.7,53,23,30,78,2.0,43,376 10^3/μL,5.9e+06,13,1.0,11700,7.8,96,87,21,"TBIL [2]: 0.24 mg/dL; Yap1 mRNA in tumors, % UTC (Yap1 mRNA [3]; 15 mg/kg daily for five days): 52 % UTC; Yap1 mRNA in tumors, % UTC (Yap1 mRNA [3]; 30 mg/kg daily for five days): 44 % UTC; % UTC (Yap1 mRNA) (Yap1 mRNA [4]; 31.3 nM): 48 % UTC; % UTC (Yap1 mRNA) (Yap1 mRNA [4]; 125.0 nM): 24 % UTC; % UTC (Yap1 mRNA) (Yap1 mRNA [4]; 500.0 nM): 5 % UTC; % UTC (Yap1 mRNA) (Yap1 mRNA [4]; 2000.00 nM): 1 % UTC; IC50 (Yap1 mRNA [4]): < 30 nM; Yap1 mRNA, % UTC (Yap1 mRNA [5]; 0.04 μM): 61 % UTC; Yap1 mRNA, % UTC (Yap1 mRNA [5]; 0.2 μM): 31 % UTC; Yap1 mRNA, % UTC (Yap1 mRNA [5]; 1 μM): 15 % UTC; Yap1 mRNA, % UTC (Yap1 mRNA [5]; 5 μM): 10 % UTC; A/G ratio [6]: 1.4; Yap1 mRNA in tumors, % control (Yap1 mRNA [7]): 60 % control"
"1198831 (CACTTTTACATTAGGA; chemically modified gapmer, further chemistry not given here) [compound 1198831]",0.3,2.0,43,13,0.8,50,23,30,76,3.3,44,377 10^3/μL,5.6e+06,12,1.0,7600,7.3,54,69,23,"TBIL [2]: 0.20 mg/dL; Yap1 mRNA in tumors, % UTC (Yap1 mRNA [3]; 15 mg/kg daily for five days): 70 % UTC; Yap1 mRNA in tumors, % UTC (Yap1 mRNA [3]; 30 mg/kg daily for five days): 48 % UTC; % UTC (Yap1 mRNA) (Yap1 mRNA [4]; 31.3 nM): 74 % UTC; % UTC (Yap1 mRNA) (Yap1 mRNA [4]; 125.0 nM): 33 % UTC; % UTC (Yap1 mRNA) (Yap1 mRNA [4]; 500.0 nM): 10 % UTC; % UTC (Yap1 mRNA) (Yap1 mRNA [4]; 2000.00 nM): 4 % UTC; IC50 (Yap1 mRNA [4]): 100 nM; Yap1 mRNA, % UTC (Yap1 mRNA [5]; 0.04 μM): 63 % UTC; Yap1 mRNA, % UTC (Yap1 mRNA [5]; 0.2 μM): 36 % UTC; Yap1 mRNA, % UTC (Yap1 mRNA [5]; 1 μM): 16 % UTC; Yap1 mRNA, % UTC (Yap1 mRNA [5]; 5 μM): 14 % UTC; A/G ratio [6]: 1.4; Yap1 mRNA in tumors, % control (Yap1 mRNA [7]): 67 % control"
